Experimental data from patent publication US9833497B2, “Human originated EGF domain proteins and use of the same” (CHENGDU SOURCEBIO LIMITED-LIABILITY COMPANY, priority 2013, dated 2017).

How the values were obtained:
Assay type in all cases: cell-based
Pseudomonas aeruginosa = assay: MIC against Gram-negative bacteria: Pseudomonas aeruginosa; conditions: for MIC (μg/mL) P. aeruginosa / MIC P. aeruginosa / MIC against P. aeruginosa: 5×10^5 CFU/mL; for MIC P. aeruginosa: two-fold serial dilution
Method in brief: (§1)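 Purified recombinant human EGF domain proteins are tested by broth dilution in LB against a 5×10^5 CFU/mL inoculum, with two-fold serial dilutions run in triplicate. Plates are incubated at 37° C with shaking, and the MIC is read as the lowest protein concentration without growth.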

Citrobacter diversus = assay: MIC against Gram-negative bacteria: Citrobacter diversus; conditions: for MIC (μg/mL) C. diversus / MIC C. diversus / MIC against C. diversus: 5×10^5 CFU/mL; for MIC C. diversus: two-fold serial dilution
Method in brief: as §1

Serratia marcescens = assay: MIC against Gram-negative bacteria: Serratia marcescens; conditions: for MIC (μg/mL) S. marcescens / MIC S. marcescens / MIC against S. marcescens: 5×10^5 CFU/mL; for MIC S. marcescens: two-fold serial dilution
Method in brief: as §1

Enterobacter cloacae = assay: MIC against Gram-negative bacteria: Enterobacter cloacae; conditions: for MIC (μg/mL) E. cloacae / MIC E. cloacae / MIC against E. cloacae: 5×10^5 CFU/mL; for MIC E. cloacae: two-fold serial dilution
Method in brief: as §1

E. coli BL21 = assay: MIC against Gram-negative bacteria: E. coli BL21; conditions: for MIC (μg/mL) E. coli BL21 / MIC E. coli BL21 / MIC against E. coli BL21: 5×10^5 CFU/mL; for MIC E. coli BL21: two-fold serial dilution
Method in brief: as §1

Klebsiella pneumonia = assay: MIC against Gram-negative bacteria: Klebsiella pneumonia; conditions: for MIC (μg/mL) K. pneumonia / MIC K. pneumonia / MIC against K. pneumonia: 5×10^5 CFU/mL; for MIC K. pneumonia: two-fold serial dilution
Method in brief: as §1

Proteus vulgaris = assay: MIC against Gram-negative bacteria: Proteus vulgaris; conditions: for MIC (μg/mL) P. vulgaris / MIC P. vulgaris / MIC against P. vulgaris: 5×10^5 CFU/mL; for MIC P. vulgaris: two-fold serial dilution
Method in brief: as §1

E. coli DH5α = assay: Antibacterial activity: MIC and growth curve against E. coli DH5α in 96-well plate; conditions: minimal inhibitory concentration against E. coli DH5α; 96-well plate, 5×10^5 CFU/mL, 37° C., judged after 8 h
Method in brief: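 Log-phase bacteria (OD600 ~0.5) resuspended in LB at 5×10^5 CFU/mL, exposed to recombinant protein at 50, 25, 12.5 μg/mL final in triplicate, 37 °C shaking at 175 rpm. OD600 read every 30 min; MIC is lowest concentration showing no growth.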

Moraxella catarrhalis = assay: MIC against Gram-negative bacteria: Moraxella catarrhalis; conditions: for MIC (μg/mL) M. catarrhalis / MIC M. catarrhalis / MIC against M. catarrhalis: 5×10^5 CFU/mL; for MIC M. catarrhalis: two-fold serial dilution
Method in brief: as §1

Proteus mirabilis = assay: MIC against Gram-negative bacteria: Proteus mirabilis; conditions: for MIC (μg/mL) P. mirabilis / MIC P. mirabilis / MIC against P. mirabilis: 5×10^5 CFU/mL; for MIC P. mirabilis: two-fold serial dilution
Method in brief: as §1

Aeromonas hydrophila = assay: MIC against Gram-negative bacteria: Aeromonas hydrophila; conditions: for MIC (μg/mL) A. hydrophila / MIC A. hydrophila / MIC against A. hydrophila: 5×10^5 CFU/mL; for MIC A. hydrophila: two-fold serial dilution
Method in brief: as §1

[1] = P. aeruginosa, 10 h cultivation at 37° C.
[2] = C. diversus, 10 h cultivation at 37° C.
[3] = S. marcescens, 10 h cultivation at 37° C.
[4] = E. cloacae, 10 h cultivation at 37° C.
[5] = E. coli BL21, 10 h cultivation at 37° C.
[6] = K. pneumonia, 10 h cultivation at 37° C.
[7] = P. vulgaris, 10 h cultivation at 37° C.
[8] = M. catarrhalis, 10 h cultivation at 37° C.
[9] = P. mirabilis, 10 h cultivation at 37° C.
[10] = A. hydrophila, 10 h cultivation at 37° C.
[11] = Pseudomonas aeruginosa, 96-well plate, 37° C., 10 h
[12] = Citrobacter diversus, 96-well plate, 37° C., 10 h
[13] = Serratia marcescens, 96-well plate, 37° C., 10 h
[14] = Enterobacter cloacae, 96-well plate, 37° C., 10 h
[15] = E. coli BL21, 96-well plate, 37° C., 10 h
[16] = Klebsiella pneumonia, 96-well plate, 37° C., 10 h
[17] = Proteus vulgaris, 96-well plate, 37° C., 10 h
[18] = Moraxella catarrhalis, 96-well plate, 37° C., 10 h
[19] = Proteus mirabilis, 96-well plate, 37° C., 10 h
[20] = Aeromonas hydrophila, 96-well plate, 37° C., 10 h

PRT881 (AEGPCGERPCENGGICFLLDGHPTCDCSTTGYGGKLCS; listed as Homo sapiens)
25 µg/mL: MIC (μg/mL) K. pneumonia (Klebsiella pneumonia; [6]) | MIC (μg/mL) P. vulgaris (Proteus vulgaris; [7]) | MIC (μg/mL) M. catarrhalis (Moraxella catarrhalis; [8]) | MIC (μg/mL) A. hydrophila (Aeromonas hydrophila; [10])
12.5 µg/mL: MIC (μg/mL) P. aeruginosa (Pseudomonas aeruginosa; [1]) | MIC (μg/mL) C. diversus (Citrobacter diversus; [2]) | MIC (μg/mL) S. marcescens (Serratia marcescens; [3]) | MIC (μg/mL) E. cloacae (Enterobacter cloacae; [4]) | MIC (μg/mL) E. coli BL21 (E. coli BL21; [5]) | MIC (E. coli DH5α) | MIC (μg/mL) P. mirabilis (Proteus mirabilis; [9])

PRT225 (DIDECSYSSYLCQYRCINEPGRFSCHCPQGYQLLATRLCQ; listed as Homo sapiens)
12.5 µg/mL: MIC (μg/mL) P. aeruginosa (Pseudomonas aeruginosa; [1]) | MIC (μg/mL) P. vulgaris (Proteus vulgaris; [7]) | MIC (E. coli DH5α) | MIC (μg/mL) A. hydrophila (Aeromonas hydrophila; [10])
50 µg/mL: MIC (μg/mL) E. coli BL21 (E. coli BL21; [5]) | MIC (μg/mL) K. pneumonia (Klebsiella pneumonia; [6]) | MIC (μg/mL) M. catarrhalis (Moraxella catarrhalis; [8])
25 µg/mL: MIC (μg/mL) C. diversus (Citrobacter diversus; [2]) | MIC (μg/mL) S. marcescens (Serratia marcescens; [3]) | MIC (μg/mL) E. cloacae (Enterobacter cloacae; [4]) | MIC (μg/mL) P. mirabilis (Proteus mirabilis; [9])

PRT76 (EVDLCYSRPCGPHGRCRSREGGYTCLCRDGYTGEHCE; listed as Homo sapiens)
12.5 µg/mL: MIC (μg/mL) E. coli BL21 (E. coli BL21; [15]) | MIC (μg/mL) K. pneumonia (Klebsiella pneumonia; [16]) | MIC (μg/mL) P. vulgaris (Proteus vulgaris; [17]) | MIC (μg/mL) P. mirabilis (Proteus mirabilis; [19]) | MIC (μg/mL) A. hydrophila (Aeromonas hydrophila; [20])
100 µg/mL: MIC (μg/mL) M. catarrhalis (Moraxella catarrhalis; [18])
50 µg/mL: MIC (μg/mL) S. marcescens (Serratia marcescens; [13])
25 µg/mL: MIC (μg/mL) P. aeruginosa (Pseudomonas aeruginosa; [11]) | MIC (μg/mL) C. diversus (Citrobacter diversus; [12]) | MIC (μg/mL) E. cloacae (Enterobacter cloacae; [14]) | MIC (E. coli DH5α)

PRT944 (TSHPCFVSRPCLNGGTCHMLSRDTYECTCQVGFTGKECQ; listed as Homo sapiens)
50 µg/mL: MIC (Pseudomonas aeruginosa; [1]) | MIC (Citrobacter diversus; [2]) | MIC (Enterobacter cloacae; [4]) | MIC (Proteus vulgaris; [7])
100 µg/mL: MIC (Klebsiella pneumonia; [6])
12.5 µg/mL: MIC (Serratia marcescens; [3]) | MIC (E. coli DH5α) | MIC (Moraxella catarrhalis; [8]) | MIC (Aeromonas hydrophila; [10])
25 µg/mL: MIC (E. coli BL21; [5]) | MIC (Proteus mirabilis; [9])

PRT1183 (NIDDCLGQPCRNGGTCIDEVDAFRCFCPSGWEGELCD; listed as Homo sapiens)
50 µg/mL: MIC E. cloacae (Enterobacter cloacae; 10 h cultivation at 37° C.) | MIC E. coli BL21 (E. coli BL21; 10 h cultivation at 37° C.) | MIC P. mirabilis (Proteus mirabilis; 10 h cultivation at 37° C.)
25 µg/mL: MIC P. aeruginosa (Pseudomonas aeruginosa; 10 h cultivation at 37° C.) | MIC P. vulgaris (Proteus vulgaris; 10 h cultivation at 37° C.) | MIC (E. coli DH5α) | MIC M. catarrhalis (Moraxella catarrhalis; 10 h cultivation at 37° C.) | MIC A. hydrophila (Aeromonas hydrophila; 10 h cultivation at 37° C.)
12.5 µg/mL: MIC C. diversus (Citrobacter diversus; 10 h cultivation at 37° C.) | MIC S. marcescens (Serratia marcescens; 10 h cultivation at 37° C.) | MIC K. pneumonia (Klebsiella pneumonia; 10 h cultivation at 37° C.)

PRT134 (IKDRCLPNYCEHGGSCSQSWTTFYCNCSDTSYTGATCH; listed as Homo sapiens)
25 µg/mL: MIC (μg/mL) C. diversus (Citrobacter diversus; [12]) | MIC (μg/mL) K. pneumonia (Klebsiella pneumonia; [16]) | MIC (μg/mL) P. vulgaris (Proteus vulgaris; [17]) | MIC (μg/mL) A. hydrophila (Aeromonas hydrophila; [20])
12.5 µg/mL: MIC (μg/mL) P. aeruginosa (Pseudomonas aeruginosa; [11]) | MIC (μg/mL) S. marcescens (Serratia marcescens; [13]) | MIC (μg/mL) E. cloacae (Enterobacter cloacae; [14]) | MIC (μg/mL) E. coli BL21 (E. coli BL21; [15]) | MIC (E. coli DH5α) | MIC (μg/mL) M. catarrhalis (Moraxella catarrhalis; [18])
100 µg/mL: MIC (μg/mL) P. mirabilis (Proteus mirabilis; [19])

PRT1267 (CNHGNGGCQHSCDDTADGPECSCHPQYKMHTDGRSC; listed as Homo sapiens)
25 µg/mL: MIC against E. coli BL21 (E. coli BL21; [15]) | MIC against K. pneumonia (Klebsiella pneumonia; [16]) | MIC against P. vulgaris (Proteus vulgaris; [17]) | MIC against M. catarrhalis (Moraxella catarrhalis; [18])
50 µg/mL: MIC against P. aeruginosa (Pseudomonas aeruginosa; [11]) | MIC against P. mirabilis (Proteus mirabilis; [19]) | MIC against A. hydrophila (Aeromonas hydrophila; [20])
12.5 µg/mL: MIC against C. diversus (Citrobacter diversus; [12]) | MIC against S. marcescens (Serratia marcescens; [13]) | MIC against E. cloacae (Enterobacter cloacae; [14]) | MIC (E. coli DH5α)

PRT1453 (DVDECAEPGLSHCHALATCVNVVGSYLCVCPAGYRGDGWHCE; listed as Homo sapiens)
25 µg/mL: MIC against P. aeruginosa (Pseudomonas aeruginosa; Pseudomonas aeruginosa, 10 h cultivation at 37° C.) | MIC against C. diversus (Citrobacter diversus; Citrobacter diversus, 10 h cultivation at 37° C.) | MIC against E. cloacae (Enterobacter cloacae; Enterobacter cloacae, 10 h cultivation at 37° C.) | MIC against P. vulgaris (Proteus vulgaris; Proteus vulgaris, 10 h cultivation at 37° C.) | MIC (E. coli DH5α)
12.5 µg/mL: MIC against S. marcescens (Serratia marcescens; Serratia marcescens, 10 h cultivation at 37° C.) | MIC against E. coli BL21 (E. coli BL21; [5]) | MIC against P. mirabilis (Proteus mirabilis; Proteus mirabilis, 10 h cultivation at 37° C.) | MIC against A. hydrophila (Aeromonas hydrophila; Aeromonas hydrophila, 10 h cultivation at 37° C.)
50 µg/mL: MIC against K. pneumonia (Klebsiella pneumonia; Klebsiella pneumonia, 10 h cultivation at 37° C.) | MIC against M. catarrhalis (Moraxella catarrhalis; Moraxella catarrhalis, 10 h cultivation at 37° C.)

PRT1170 (RNSSCLPNPCHNGGTCVVNGESFTCVCKEGWEGPICA; listed as Homo sapiens)
100 µg/mL: MIC E. cloacae (Enterobacter cloacae; 10 h cultivation at 37° C.)
12.5 µg/mL: MIC C. diversus (Citrobacter diversus; 10 h cultivation at 37° C.) | MIC E. coli BL21 (E. coli BL21; 10 h cultivation at 37° C.) | MIC K. pneumonia (Klebsiella pneumonia; 10 h cultivation at 37° C.) | MIC P. vulgaris (Proteus vulgaris; 10 h cultivation at 37° C.) | MIC P. mirabilis (Proteus mirabilis; 10 h cultivation at 37° C.)
25 µg/mL: MIC P. aeruginosa (Pseudomonas aeruginosa; 10 h cultivation at 37° C.) | MIC S. marcescens (Serratia marcescens; 10 h cultivation at 37° C.) | MIC (E. coli DH5α)
50 µg/mL: MIC M. catarrhalis (Moraxella catarrhalis; 10 h cultivation at 37° C.) | MIC A. hydrophila (Aeromonas hydrophila; 10 h cultivation at 37° C.)

PRT1110 (RREQCRPLPCVHGGSCVDLWTHFRCDCARPHRGPTCA; listed as Homo sapiens)
50 µg/mL: MIC C. diversus (Citrobacter diversus; 10 h cultivation at 37° C.) | MIC E. cloacae (Enterobacter cloacae; 10 h cultivation at 37° C.) | MIC E. coli BL21 (E. coli BL21; 10 h cultivation at 37° C.) | MIC P. vulgaris (Proteus vulgaris; 10 h cultivation at 37° C.)
12.5 µg/mL: MIC K. pneumonia (Klebsiella pneumonia; 10 h cultivation at 37° C.) | MIC M. catarrhalis (Moraxella catarrhalis; 10 h cultivation at 37° C.) | MIC A. hydrophila (Aeromonas hydrophila; 10 h cultivation at 37° C.)
25 µg/mL: MIC P. aeruginosa (Pseudomonas aeruginosa; 10 h cultivation at 37° C.) | MIC S. marcescens (Serratia marcescens; 10 h cultivation at 37° C.) | MIC (E. coli DH5α) | MIC P. mirabilis (Proteus mirabilis; 10 h cultivation at 37° C.)
